Laboratory results published in PMC5656322, “BAK1 is involved in AtRALF1-induced inhibition of root cell expansion” (PLoS Genetics, 2017).
Where no end group is shown, it is not given here.

Legend:
[1] = ITC of AtRALF1 into buffer; type: physicochemical; settings: AtRALF1 0.7 mM injected in 15 mM HEPES, pH 6.8, 25°C (S15A Fig)
Description: ITC was performed using a VP ITC with a 1.4 ml standard cell and a 293 μl titration syringe. Proteins were dissolved in ITC buffer (15 mM HEPES (4-(2-hydroxyethyl)-1-piperazineethanesulfonic acid, pH 6.8) and the experiments were performed at 25°C. Molar protein concentration for BAK1-ECD and AtRALF1 were calculated using their molecular weight of 25,654.04 and 7,631 Da, respectively (determined by HPLC). The concentrations for the complex titrations were 0.7 mM of protein (BAK1-ECD) in the syringe and 0.03 mM of ligand (AtRALF1) in the cell at time intervals of 300 s (28 injections of volume 10 μl) to ensure that the titration peak returned to the baseline.
Supplementary file pgen.1007053.s015.pdf: S15 Fig Isothermal titration calorimetry (ITC) of AtRALF1 and BAK1-ECD. (A) AtRALF1 in 15mM HEPES, pH 6.8. ITC experiments were simulated using the following parameters: 28 injections of AtRALF1 (0.7 mM, volume 10 μL) in HEPES (volume cell = 1.4 mL) at 25°C. (B) BAK1-ECD in 15mM HEPES, pH 6.8. ITC experiments were simulated using the following parameters: 28 injections of BAK1-ECD (0.7 mM, volume 10 μL) in HEPES (volume cell = 1.4 mL) at 25°C. (C) HEPES in AtRALF1. ITC experiments were simulated using the following parameters: 28 injections of buffer 15mM HEPES, pH 6.8 (volume 10 μL) in AtRALF1 (0.03 mM, volume cell = 1.4 mL) at 25°C. (PDF) Click here for additional data file.

BAK1-GFP = experiment: Co-immunoprecipitation with microsomal fraction of N. benthamiana leaves expressing BAK1-GFP; type: binding, Arabidopsis thaliana; settings: 600 nM peptide, 1 h, 4 °C, anti-GFP antibody
Description: This assay was performed as previously described with some modifications. The BAK1 coding region was amplified from Arabidopsis genomic cDNA using standard PCR with the primers BAK1 Fw and BAK1 Rv (S1 Table). To generate the p35S-BAK1:GFP plasmid, the fragment was cloned into the pENTR D-TOPO vector and later transferred to the pk7FWG2 vector [56]. Leaves from N. benthamiana plants were agroinfiltrated with p19 vector alone and p19 co-expressed with p35S-BAK1:GFP, as previously described. After 3 days, leaves were homogenized in extraction buffer [300 mM sucrose, 100 mM Tris-HCl pH 7.5, 25 mM EDTA, 25 mM NaF, 1 mM Na2MoO4, 1 mM PMSF, 1 mM DTT and protease inhibitor cocktail (Roche), pH 6.2 adjusted] and centrifuged at 1,000 g for 10 min at 4°C, and the supernatant was then centrifuged at 100,000 g for 50 min at 4°C to precipitate the microsomal pellet. The pellet was resuspended in the extraction buffer plus 0.5% Triton-X and incubated with 600 nM recombinant AtRALF1 or 600 nM RALF1(I6A) for 1 h at 4°C. The complexes were incubated with anti-GFP antibody (Santa Cruz Biotechnology) and Sepharose Beads plus protein A (Life Technologies) overnight at 4°C. […] The AtRALF1/BAK1-GFP complex bound to the beads was eluted with denaturing in 10 μl of 1X loading buffer (NuPAGE LDS buffer) at 95°C for 8 min, then analyzed by SDS-PAGE. The proteins were detected as previously described.

[2] = tested on: BAK1 gene promoter / BAK1-GFP; experiment: Quantification of GFP in roots of pBAK1:BAK1-GFP plants; type: in vivo, Arabidopsis thaliana; settings: 1 μM, 4 h
Description: Transgenic Arabidopsis plants were grown for 4 days in liquid medium and treated with 1 μM AtRALF1 for 4 h. After 4 h of agitation at room temperature, the intensity of GFP in the roots was analyzed by confocal microscopy (Olympus FV1000). Control plants were kept in a peptide-free medium. The GFP excitation wavelength was 488 nm, and the emission wavelength was 540 nm. Images were generated by a scanner depth of 7 μm. Ten slices per root were generated and compacted in one image. Image processing was performed using the Olympus FluoView software. An average of 20 seedlings were observed under the microscope in at least 3 different experiments using independent biological replicates.

Substance: AtRALF1: root-specific RALF isoform in Arabidopsis; recombinant peptide hormone produced in E. coli (ATTKYISYQSLKRNSVPCSRRGASYYNCQNGAQANPYSRGCSKIARCRS; ends and bridges not checked; cysteine pairing not given here)
- heat of dissociation [1]: exhibits heat of dissociation
- co-immunoprecipitation with BAK1-GFP (BAK1-GFP): co-immunoprecipitated when the anti-GFP antibody was used
- BAK1-GFP fluorescent signal in roots [2]: quantitative increase in fluorescent signal in the roots
